Measured values reported in patent publication US20160176924A1, “MODIFIED PEPTIDES AS POTENT INHIBITORS OF THE PSD-95/NMDA RECEPTOR INTERACTION” (priority 2008, published 2016).
Like-named read-outs stand apart in the source and are kept apart here. Numbered stars: 1 amine (or outer) side, 2 acyl side, 3 side chain; on linkers, the order of the positions; unused ones are H or OH. Bridge positions count the residues as written; N and C are the ends. Ends that are not written are not given here. Peptide text beside a SMILES is read from it. I, II: the chains in the order shown. CO(CH2CH2O)13CH2CH2CO = O=C(CCOCCOCCOCCOCCOCCOCCOCCOCCOCCOCCOCCOCCOCCC(=O)[*:2])[*:1]

Assays:
[1] = Human blood plasma stability assay; format: in vitro ADME
Description: In this assay, the half-life (T1/2) of a compound in blood plasma is measured in vitro, whereby its susceptibility to degradation by proteases, peptidases and general plasma contents is quantified.
Compounds of interest were dissolved in human blood plasma (270 μl; 3H Biomedical, Sweden, cat no 1300-1-P50) to a concentration of 0.25 mM (30 μL of 2.5 mM) and incubated at 37° C. Aliquots (30 μl) were removed at various time intervals (0, 5, 10, 20, 40, 80, 160, 320, 960, 1280, 2550, 4560 and 7240 min) and quenched with 60 μL trichloroacetic acid (aq., 5%). The aliquots were vortexed, and incubated for at least 15 min, at 4° C. prior to centrifugation at 18,000 g for 2 min and the supernatant was analyzed by RP-HPLC to quantify the remaining compound (absorbance at 218 nm).

[2] = target: T1, PDZ1-2 tandem of PSD-95 (Homo sapiens, UniProt P78352); assay: FP heterologous competition binding assay; settings: mean ± SEM
T1 construct: PDZ1-2 (residues 61-249) tandem; made in house; host or cells: E. coli BL21-DE3 pLysS
Excerpt: (§1) Determined IC50 values may be converted to Ki values.^5 Suitable fluorophores include either 5-FAM or Cy5, which may be coupled to a tripeptide (KSG or CSG) linker attached to the N-terminus of the undecapeptide, to give 5-FAM-NR2B, Cy5-NR2B, 5-FAM-CRIPT and Cy5-CRIPT. The 5-FAM fluorophore may be attached to the undecapeptides by coupling with HATU. The Cy5 fluorophore may be conjugated to the undecapeptides by coupling Cy5-maleimide to the cysteine side chain of the tripeptide sequence CSG attached to the N-terminus of the peptide, as detailed in the Methodology section.
(§2) To measure the affinities between non-fluorescent peptides and PDZ domains, heterologous competition bindings assay were performed. This was done by adding increasing concentrations of peptide to a fixed concentration of Cy5-NR2B, 5-FAM-NR2B, Cy5-CRIPT or 5-FAM-CRIPT (50 nM) and PDZ (20 μM for PDZ1, 3 μM for PDZ2 and 1-2 and 5 μM for PDZ3) in the same TBS buffer and conditions as described above. FP values were then fitted to the general equation: Y=Bottom+(Top−Bottom)/[1[…](10̂^X-logIC50)], where X is the logarithmic value of peptide concentration. Hereby the IC50 value was obtained, which is used to calculate the theoretical competitive inhibition constant, Ki.^5
(§3) A convenient and reliable way to examine interactions between peptide analogues and PDZ domains is by using a fluorescence polarization (FP) assay. The three PDZ domains, PDZ1-3, of PSD-95 were expressed individually as set out above, while PDZ1-2 was also expressed as a tandem construct. […] IC50 values were then converted to Ki values.^5

[3] = target: T2, PDZ2 of PSD-95 (Homo sapiens, UniProt P78352); assay: FP heterologous competition binding assay; settings: for Ki: FP competition, mean ± SEM, NA = no activity/affinity
T2 construct: PDZ2 (residues 155-249); made in house; host or cells: E. coli BL21-DE3 pLysS
Excerpt: as §1, §2, §3

[4] = target: T3, PDZ1 of PSD-95 (Homo sapiens, UniProt P78352); assay: FP heterologous competition binding assay; settings: for Ki: FP competition, mean ± SEM, NA = no activity/affinity
T3 construct: PSD-95 PDZ1 (residues 61-151); made in house; host or cells: E. coli BL21-DE3 pLysS
Excerpt: as §1, §2, §3

[5] = target: T4, PDZ3 of PSD-95 (Homo sapiens, UniProt P78352); assay: FP heterologous competition binding assay; settings: FP competition; mean ± SEM; NA = no activity/affinity
T4 construct: PDZ3 (residues 309-401); made in house; host or cells: E. coli BL21-DE3 pLysS
Excerpt: as §1, §2, §3

[6] = human, plasma, Blood plasma half life (T1/2)

## CC[C@H](C)[C@H](NC(=O)CCOCCOCCOCCOCCOCCOCCOCCOCCOCCC(=O)N[C@H](C(=O)N[C@@H](CCC(=O)O)C(=O)N[C@@H](CO)C(=O)N[C@@H](CC(=O)O)C(=O)N[C@H](C(=O)O)C(C)C)[C@@H](C)CC)C(=O)N[C@@H](CCC(=O)O)C(=O)N[C@@H](CO)C(=O)N[C@@H](CC(=O)O)C(=O)N[C@H](C(=O)O)C(C)C [(IESDV)2PEG8 (76), (IESDV)2PEG8]
[1]
  degradation in human blood plasma, in words: no significant degradation could be detected over a time period of 6 days
[1]; [6]
  half-life at […]: > 133 h
[2]
  Ki: ~0.1 µM
[3]
  Ki: 2.6 ± 0.13 µM

## CC[C@H](C)[C@H](NC(=O)CCOCCOCCOCCOCCOCCOCCOCCC(=O)N[C@H](C(=O)N[C@@H](CCC(=O)O)C(=O)N[C@@H](CO)C(=O)N[C@@H](CC(=O)O)C(=O)N[C@H](C(=O)O)C(C)C)[C@@H](C)CC)C(=O)N[C@@H](CCC(=O)O)C(=O)N[C@@H](CO)C(=O)N[C@@H](CC(=O)O)C(=O)N[C@H](C(=O)O)C(C)C [(IESDV)2PEG6 (77), (IESDV)2PEG6]
[1]
  degradation in human blood plasma, in words: no significant degradation could be detected over a time period of 6 days
[1]; [6]
  half-life at […]: > 133 h
[2]
  Ki: ~0.1 µM

## SDV
[4]
  fold increase in Ki (loss of affinity) compared to NR2B peptide (1), PDZ1: > 20 fold
[3]
  fold increase in Ki (loss of affinity) compared to NR2B peptide (1), PDZ2: > 30 fold

## IESDV-PEG4 [IESDV-PEG4 (91)]
[1]; human
  fold increase in half life compared to non-pegylated peptide 7: about 10 fold
[1]; human, plasma
  Blood plasma half life (T1/2): 10 h

## CC(C)[C@H](NC(=O)[C@H](C)NC(=O)[C@@H](NC(=O)[C@H](CCC(=O)O)NCCCc1ccccc1)C(C)O)C(=O)O (stereo partly drawn) [Compound 60, N-Phenylpropyl-ETAV]
[4]
  Ki: 2.1 ± 0.35 µM
[3]
  Ki: 3.1 ± 0.31 µM

## CC(C)[C@H](NC(=O)[C@H](C)NC(=O)[C@@H](NC(=O)[C@H](C)N)[C@@H](C)O)C(=O)O [ATAV (68), ATAV] (H-ATAV-OH; C-terminus assumed)
[5]
  Ki: ≥ 400 µM

## YGRKKRRQRRRKLSSIESDV [Tat-NR2B (3), reference compound] [listing 1 of 2 here]
[1]; human blood plasma, 37° C., 0.25 mM, read-out: Blood plasma half life (T1/2)
  half-life at […]: 24.5 h

## CC(C)[C@H](NC(=O)[C@H](CC(=O)O)NC(=O)[C@H](CO)NC(=O)[C@H](CCC(=O)O)NC(=O)CCOCCOCCOCCOCCOCCOCCOCCOCCOCCOCCOCCOCCOCCC(=O)N[C@@H](CCC(=O)O)C(=O)N[C@@H](CO)C(=O)N[C@@H](CC(=O)O)C(=O)N[C@H](C(=O)O)C(C)C)C(=O)O [Compound 84] (I: ESDV-OH / II: ESDV-OH; linker I:N-II:N via CO(CH2CH2O)13CH2CH2CO; C-terminus assumed)
[3]
  Ki: 22 ± 0.18 µM

## CC(C)[C@H](NC(=O)[C@H](C)NC(=O)[C@@H](NC(=O)[C@H](CCC(=O)O)NCC1CCCCC1)C(C)O)C(=O)O (stereo partly drawn) [Compound 55, N-Cyclohexylmethyl-ETAV]
[4]
  fold increase in affinity (more potent) compared to NR2B peptide (1), PDZ1: ca. 19 fold
  Ki: 1 ± 0.24 µM
[5]
  Ki: 21 ± 0.64 µM

## YGRKKRRQRRRKLSSIESDV [Tat-NR2B (3), reference compound] [listing 2 of 2 here]
[2]
  Ki: 9.8 ± 0.35 µM

## CC[C@H](C)[C@H](NC(=O)CCOCCOCCOCCOCCOCCC(=O)N[C@H](C(=O)N[C@@H](C)C(=O)N[C@H](C(=O)N[C@@H](C)C(=O)N[C@H](C(=O)O)C(C)C)[C@@H](C)O)[C@@H](C)CC)C(=O)N[C@@H](C)C(=O)N[C@H](C(=O)N[C@@H](C)C(=O)N[C@H](C(=O)O)C(C)C)[C@@H](C)O [(IATAV)2PEG4 (88), (IATAV)2PEG4]
[1]; [6]
  half-life at […]: 2.05 h
[2]
  Ki: 1.1 ± 0.07 µM
[3]
  Ki: 25 ± 0.88 µM

## CC(C)[C@H](NC(=O)[C@H](C)NC(=O)[C@@H](NC(=O)[C@H](CCC(N)=O)NCCC1CCCCC1)[C@@H](C)O)C(=O)O [QTAV (72)]
[4]
  Ki: 21 ± 1.1 µM
